Key:
P. falciparum NF54 = test: In vitro [3H]hypoxanthine incorporation assay, P. falciparum NF54; type: cell-based, Plasmodium falciparum; settings: 16 h + 8 h incubation; read-out: IC50 (mean ± SD) for P. falciparum NF54 (n = 3)
Procedure: Human erythrocytes served as the host cells. In vitro antimalarial activity was measured using the [^3H]hypoxanthine incorporation assay ([36]) with strain NF54 of P. falciparum (obtained from Hoffmann-LaRoche Ltd.). The compounds were dissolved in dimethyl sulfoxide (DMSO) at a concentration of 10 mM, diluted in hypoxanthine-free culture medium, and titrated in duplicate over a 64-fold range in 96-well plates. […] The parasites were harvested onto glass fiber filters, and radioactivity was measured using a BetaPlate liquid scintillation counter (Wallac, Zurich, Switzerland). All assays were repeated at least three times. The results were recorded and expressed as a percentage of the untreated controls. […] In addition, for the PK-PD analysis of KAE609, an IC99 value was determined by transforming the data from a scintillation counter (Anscombe transformation) to account for Poissonian measurement error. […] Each of the three replicates was performed on a distinct 96-well plate. This has been accounted for in the fitting procedure by means of a Bayesian hierarchical model. The software used for parameter inference was Stan ([37]).

[1] = tested on: P. berghei GFP ANKA PbGFPCON; test: In vitro (ex vivo) P. berghei maturation assay; type: cell-based, Plasmodium berghei; settings: 16 h + 8 h incubation; read-out: IC50 (mean ± SD) for P. berghei GFP ANKA PbGFPCON (n = 3)
Procedure: For the in vitro (ex vivo) P. berghei maturation assays ([38]), heparinized blood from infected mice (P. berghei GFP ANKA malaria strain PbGFPCON, a donation from A. P. Waters and C. J. Janse, Leiden University, Leiden, the Netherlands) ([39]) was washed with 9 ml of hypoxanthine-free culture medium and diluted with hypoxanthine-free culture medium and red blood cells (RBCs) from uninfected mice to a hematocrit of 5% and a parasitemia of 0.3%. Serial compound dilutions were prepared in DMSO and distributed as described above. The infected erythrocytes (0.3% final parasitemia and 2.5% final hematocrit) were added into the wells. After the plates were incubated for 16 h, 0.25 μCi of [^3H]hypoxanthine was added per well, and the plates were incubated for an additional 8 h. The parasites were harvested, and the in vitro (ex vivo) P. berghei IC50, IC90, and IC99 values were determined as described above.

[2] = In vivo PK after single p.o. and i.v. dosing in CD-1 mice; parameters: species or system female CD-1 mice; settings: CD-1 mice
Procedure: The Institutional Animal Care and Use Committee (IACUC) of the Novartis Institute for Tropical Diseases (NITD), registered with the Agri-Food and Veterinary authority (AVA), Government of Singapore, reviewed and approved all animal experimental protocols. […] The mice were allowed to acclimate before the initiation of the experiments. Feed and water were given ad libitum. […] The blood samples from the mice were collected at 0.02 (for i.v. only), 0.08, 0.25, 0.5, 1, 2, 4, 8, 16, and 24 h postdosing. The dose proportionality studies were conducted with KAE609. […] Additional samples were collected at 32 h and 48 h postdose for the 1- and 5-mg/kg dose groups and up to 72 h postdose for the 100-mg/kg dose group. Groups of three mice were used for each time point. Blood was centrifuged at 13,000 rpm for 7 min at 4°C, and plasma was harvested and stored at -20°C until analysis. […] After vortexing and centrifuging the mixture, the supernatant was removed and 5 μl of sample analyzed. Analyte quantitation was performed by high-performance liquid chromatography coupled with tandem mass spectrometry (LC-MS/MS). […] Instrument control and data acquisition were performed using the Applied Biosystems software Analyst 1.4.2. […] Multiple-reaction monitoring (MRM) was combined with optimized MS parameters to maximize detection specificity and sensitivity. The most intense MRM transitions [338.3/295.1 for (+)-1, 370.1/327.0 for (+)-2, 370.0/326.9 for (+)-3, 354.1/310.8 for (+)-4, 354.1/311.2 for (+)-5, 372.1/329.1 for (+)-6, 388.0/331.8 for (+)-7, 372.1/316.1 for (-)-6, and 388/332 for (-)-7] were used for quantitation. Most compounds were analyzed using electrospray ionization in the negative mode, except (+)-1, which was analyzed using positive mode. The recovery of the compounds from plasma was good and consistent across the concentration range studied. The lower limits of quantification for different compounds ranged from 1.3 to 70 ng/ml in plasma. A calibration curve was freshly prepared and analyzed with every set of study samples. Intraday variability was established with triplicate quality control samples at three concentration levels. The results were accepted if relative standard deviation was <15%. The mean values of the compound concentrations in plasma were obtained from three animals at each time point and plotted against time to generate concentration-time profiles. […] The oral bioavailability (F) was calculated as the ratio between the area under the concentration-time curve from 0 to infinity (AUC0-∞) following oral administration and the AUC0-∞ following intravenous administration corrected for dose (F = […].).

[3] = tested on: P. berghei GFP ANKA malaria strain PbGFPCON; test: Dose-response efficacy in the P. berghei malaria mouse model; type: in vivo, female NMRI mice
Excerpt: All in vivo studies conducted at the Swiss Tropical and Public Health Institute (TPH) adhered to local and national regulations of laboratory animal welfare in Switzerland (permission no. 1731). For in vivo efficacy, female (specific-pathogen-free) […] (NMRI) mice were obtained from Janvier, Le Genest-Saint-Isle, France. Only mice without visible signs of disease were used for the study. Standard laboratory conditions were adopted for husbandry. In vivo antimalarial activity was assessed using groups of five female NMRI mice (20 to 22 g) intravenously infected on day zero with 2 × 10^7 erythrocytes parasitized with P. berghei GFP ANKA malaria strain PbGFPCON (a donation from A. P. Waters and C. J. Janse, Leiden University) ([39]). Untreated control mice typically died between day six and day seven postinfection. Experimental compounds were formulated in 10% ethanol, 30% PEG 400, and 60% of 10% vitamin E TPGS and were administered orally in a volume of 10 ml/kg. Dose-response efficacy studies were conducted for each spiroindolone analog. Doses of 2.5, 5, 10, 30, and 100 mg/kg were administered to groups of 5 mice each as a single dose at 24 h postinfection. Parasitemia, expressed as parasitized red blood cells (pRBCs) of >100 RBCs, was determined 72 h postinfection using standard flow cytometry techniques ([39]).
Data analysis was done using nonlinear mixed-effect modeling (NONMEM version VI 2.0), which analyzed the PD data from multiple dose groups obtained simultaneously from different experiments. Within NONMEM, first-order conditional estimation (FOCE) was the method used ([40]). The log-transformed dose and level of parasitemia were used for analysis. For each compound, a dose-response model was built, and the ED90 (effective dose lowering 90% of parasitemia) values were determined using equation 1 ([41]), where P is the parasitemia measured at any given dose, Pmax is the maximum level of parasitemia, Pmin is the minimum level of parasitemia, EZ50 is the dose required to produce 50% of the maximal effect, s is the Hill slope describing the steepness of the curve, and x is the dose (in mg/kg). 1 P=Pmin +{[Pmax−Pmin]/[1+10^(logEZ50−log x)×s]}

[4] = Parallel artificial membrane permeability assay (PAMPA); type: in vitro ADME; settings: % fraction absorbed
Excerpt: (§1) page 5: Running title: PreclinicalPK -PD of antimalarials 73 to high through put form at using in- house standard assa y protocols that are described in the 74 literature. 75 (a)HT-Equilibrium solubilit y at pH 6.8( 1); (b)Parallel Artificial Membrane P ermeability Assa y 76 expressed in % fraction absorbed (FA) ( 2,3 ); (c)Apparent permeability from apical to […] 78 tested; (d)intrinsic clearance in mouse liver micro somes ex pressed as µ L/ min/mg protein, in 79 the presen ce of liver enzym es ( 6); (e)Mous e plasm a protein binding using rapid equilibrium […] 81 82 83 84 85 86 87 88 89 90 91 92 93 94 95 96 97 98 5

Caco-2 cells = test: Caco-2 permeability; type: in vitro ADME; settings: apical to basolateral
Excerpt: as §1

[5] = Intrinsic clearance in mouse liver microsomes; type: in vitro ADME; settings: per mg protein
Excerpt: as §1

[6] = Mouse plasma protein binding, rapid equilibrium dialysis; type: in vitro ADME
Excerpt: as §1

[7] = sigmoid dose-response model, single oral doses 24 h postinfection, parasitemia 72 h postinfection

C[C@H]1Cc2c([nH]c3ccccc23)[C@@]2(N1)C(=O)Nc1ccc(Cl)cc12 [(+)-1]
IC50 (P. falciparum NF54): 13 ± 2.2 nM
IC50 [1]: 242 ± 124 nM
CL ([2]; i.v. 5 mg/kg): 49.7 mL/min/kg
Vss ([2]; i.v. 5 mg/kg): 0.9 L/kg
t1/2 (i.v.) ([2]; i.v. 5 mg/kg): 24 min
F (oral bioavailability) ([2]; oral 25 mg/kg vs i.v. 5 mg/kg): 13%
AUC0–24 ([2]; single oral dose 25 mg/kg): 1300 ng·h/mL
Tmax ([2]; single oral dose 25 mg/kg): 15 min
t1/2 (oral) ([2]; single oral dose 25 mg/kg): 42 min
Cmax ([2]; single oral dose 25 mg/kg, plasma): 1200 ng/mL
Hill slope ([3]; dose vs parasitemia model): −3.1
Pmax (maximum parasitemia) [3, 7]: 33.11
Pmin (minimum parasitemia) [3, 7]: 0.03
ED90 (effective dose causing a 90% reduction in parasitemia) ([3]; single oral dose 24 h postinfection, parasitemia 72 h postinfection): 15.3 mg/kg
PAMPA %FA [4]: 97%
Caco-2 Papp (A-B) (Caco-2 cells): 7.19 10-6 cm/sec
Hepatic CLint in mouse liver microsomes [5]: 770 µL/min/mg
Mouse PPB [6]: 98.4%
